Measured values taken from US20110028566A1, “COMPOSITIONS AND PRODUCTS CONTAINING CYCLOALIPHATIC DIOL ANTIMICROBIAL AGENTS AND METHODS OF USING THE COMPOSITIONS AND PRODUCTS” (EASTMAN CHEMICAL COMPANY, priority 2009, published 2011).

Legend:
Assay in all cases: Microbial challenge testing in BPW
Assay type in all cases: cell-based
[1] = test system: Aeromonas sp.; conditions: BPW, w/v % in label, average of replicates; for Grade code, Aeromonas sp, 3 Days: 3 days incubation; for Grade code, Aeromonas sp, 14 Days: 14 days incubation; for Grade code, Aeromonas sp, 30 Days: 30 days incubation
Outline: (§1)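 Buffered peptone water (pH 7.0) with 1% (w/v) dextrose was spiked with test material (w/v %) and challenged to a final 10^5 to 10^6 cfu/mL at time zero. Substrates were incubated at 35° C.±2° C. for 14 days, then at ambient room temperature. Broth-alone tubes served as controls.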

[2] = test system: Bacillus subtilis; conditions: BPW, w/v % in label, average of replicates; for Grade code, B. subtilis, 3 Day: 3 days incubation; for Grade code, B. subtilis, 14 Day: 14 days incubation; for Grade code, B. subtilis, 30 Days: 30 days incubation
Outline: as §1

[3] = test system: Burkholderia cepacia; conditions: BPW, w/v % in label, average of replicates; for Grade code, B. cepacia, 3 Days: 3 days incubation; for Grade code, B. cepacia, 14 Days: 14 days incubation; for Grade code, B. cepacia, 30 Days: 30 days incubation
Outline: as §1

[4] = test system: Escherichia coli; conditions: BPW, w/v % in label, average of replicates; for Grade code, E. coli, 3 Day: 3 days incubation; for Grade code, E. coli, 14 Day: 14 days incubation; for Grade code, E. coli, 30 Day: 30 days incubation
Outline: as §1

[5] = test system: Proteus vulgaris; conditions: BPW, w/v % in label, average of replicates; for Grade code, P. vulgaris, 3 Days: 3 days incubation; for Grade code, P. vulgaris, 13 Days: 13 days incubation; for Grade code, P. vulgaris, 30 Day: 30 days incubation
Outline: as §1

[6] = test system: Pseudomonas aeruginosa; conditions: BPW, w/v % in label, average of replicates; for Grade code, P. aeruginosa, 3 Days: 3 days incubation; for Grade code, P. aeruginosa, 13 Days: 13 days incubation; for Grade code, P. aeruginosa, 30 Days: 30 days incubation
Outline: as §1

[7] = test system: Staphylococcus aureus; conditions: BPW, w/v % in label, average of replicates; for Grade code, S. aureus, 3 Day: 3 days incubation; for Grade code, S. aureus, 14 Day: 14 days incubation; for Grade code, S. aureus, 30 Day: 30 days incubation
Outline: as §1

[8] = test system: Staphylococcus epidermidis; conditions: BPW, w/v % in label, average of replicates; for Grade code, S. epidermidis, 3 Days: 3 days incubation; for Grade code, S. epidermidis, 13 Days: 13 days incubation; for Grade code, S. epidermidis, 30 Days: 30 days incubation
Outline: as §1

[9] = test system: Streptococcus mutans; conditions: BPW, w/v % in label, average of replicates; for Grade code, S. mutans, 3 Day: 3 days incubation; for Grade code, S. mutans, 13 Day: 13 days incubation; for Grade code, S. mutans, 30 Days: 30 days incubation
Outline: as §1

## CCCCCCC(O)CO (stereo not drawn) [CG, 1,2-octanediol]
[1]
  Grade code, Aeromonas sp, 3 Days: 4 (1001 to 10,000 colonies (thus 10,000 cfu/mL to 100,000 cfu/mL))
  Grade code, Aeromonas sp, 14 Days: 4 (1001 to 10,000 colonies (thus 10,000 cfu/mL to 100,000 cfu/mL))
  Grade code, Aeromonas sp, 30 Days: 4 (1001 to 10,000 colonies (thus 10,000 cfu/mL to 100,000 cfu/mL))
[2]; listed as 0.25% CG
  Grade code, B. subtilis, 3 Day: 4 (1001 to 10,000 colonies (thus 10,000 cfu/mL to 100,000 cfu/mL))
  Grade code, B. subtilis, 14 Day: 4 (1001 to 10,000 colonies (thus 10,000 cfu/mL to 100,000 cfu/mL))
  Grade code, B. subtilis, 30 Days: 4 (1001 to 10,000 colonies (thus 10,000 cfu/mL to 100,000 cfu/mL))
[2]; listed as 0.5% CG
  Grade code, B. subtilis, 3 Day: 3 (101 to 1000 colonies (thus 1000 to 10,000 cfu/mL))
  Grade code, B. subtilis, 14 Day: 1 (1 to 51 colonies counted (thus 10 to 510 cfu/mL))
  Grade code, B. subtilis, 30 Days: 1 (1 to 51 colonies counted (thus 10 to 510 cfu/mL))
[3]
  Grade code, B. cepacia, 3 Days: 2 (52 to 100 colonies counted (thus 520 to 1000 cfu/mL))
[3]; listed as 0.25% CG
  Grade code, B. cepacia, 14 Days: 0.5
  Grade code, B. cepacia, 30 Days: 0.5
[3]; listed as 0.5% CG
  Grade code, B. cepacia, 14 Days: 0 (No growth detected or <1 colony (thus <10 cfu/mL))
  Grade code, B. cepacia, 30 Days: 0 (No growth detected or <1 colony (thus <10 cfu/mL))
[4]; listed as 0.25% CG
  Grade code, E. coli, 3 Day: 3 (101 to 1000 colonies (thus 1000 to 10,000 cfu/mL))
  Grade code, E. coli, 14 Day: 2 (52 to 100 colonies counted (thus 520 to 1000 cfu/mL))
  Grade code, E. coli, 30 Day: 2 (52 to 100 colonies counted (thus 520 to 1000 cfu/mL))
[4]; listed as 0.5% CG
  Grade code, E. coli, 3 Day: 1 (1 to 51 colonies counted (thus 10 to 510 cfu/mL))
  Grade code, E. coli, 14 Day: 0 (No growth detected or <1 colony (thus <10 cfu/mL))
  Grade code, E. coli, 30 Day: 0 (No growth detected or <1 colony (thus <10 cfu/mL))
[5]; listed as 0.25% CG
  Grade code, P. vulgaris, 3 Days: 4 (1001 to 10,000 colonies (thus 10,000 cfu/mL to 100,000 cfu/mL))
[5]; listed as 0.5% CG
  Grade code, P. vulgaris, 3 Days: 3 (101 to 1000 colonies (thus 1000 to 10,000 cfu/mL))
[5]
  Grade code, P. vulgaris, 13 Days: 2 (52 to 100 colonies counted (thus 520 to 1000 cfu/mL))
  Grade code, P. vulgaris, 30 Day: 2 (52 to 100 colonies counted (thus 520 to 1000 cfu/mL))
[6]; listed as 0.25% CG
  Grade code, P. aeruginosa, 3 Days: 2 (52 to 100 colonies counted (thus 520 to 1000 cfu/mL))
  Grade code, P. aeruginosa, 13 Days: 2 (52 to 100 colonies counted (thus 520 to 1000 cfu/mL))
  Grade code, P. aeruginosa, 30 Days: 2 (52 to 100 colonies counted (thus 520 to 1000 cfu/mL))
[6]; listed as 0.5% CG
  Grade code, P. aeruginosa, 3 Days: 0 (No growth detected or <1 colony (thus <10 cfu/mL))
  Grade code, P. aeruginosa, 13 Days: 0 (No growth detected or <1 colony (thus <10 cfu/mL))
  Grade code, P. aeruginosa, 30 Days: 0 (No growth detected or <1 colony (thus <10 cfu/mL))
[7]; listed as 0.25% CG
  Grade code, S. aureus, 3 Day: 4 (1001 to 10,000 colonies (thus 10,000 cfu/mL to 100,000 cfu/mL))
  Grade code, S. aureus, 14 Day: 2 (52 to 100 colonies counted (thus 520 to 1000 cfu/mL))
  Grade code, S. aureus, 30 Day: 2 (52 to 100 colonies counted (thus 520 to 1000 cfu/mL))
[7]; listed as 0.5% CG
  Grade code, S. aureus, 3 Day: 3 (101 to 1000 colonies (thus 1000 to 10,000 cfu/mL))
  Grade code, S. aureus, 14 Day: 0 (No growth detected or <1 colony (thus <10 cfu/mL))
  Grade code, S. aureus, 30 Day: 0 (No growth detected or <1 colony (thus <10 cfu/mL))
[8]; listed as 0.25% CG
  Grade code, S. epidermidis, 3 Days: 4 (1001 to 10,000 colonies (thus 10,000 cfu/mL to 100,000 cfu/mL))
  Grade code, S. epidermidis, 13 Days: 1 (1 to 51 colonies counted (thus 10 to 510 cfu/mL))
  Grade code, S. epidermidis, 30 Days: 1 (1 to 51 colonies counted (thus 10 to 510 cfu/mL))
[8]; listed as 0.5% CG
  Grade code, S. epidermidis, 3 Days: 2 (52 to 100 colonies counted (thus 520 to 1000 cfu/mL))
  Grade code, S. epidermidis, 13 Days: 0 (No growth detected or <1 colony (thus <10 cfu/mL))
  Grade code, S. epidermidis, 30 Days: 0 (No growth detected or <1 colony (thus <10 cfu/mL))
[9]
  Grade code, S. mutans, 3 Day: 0 (No growth detected or <1 colony (thus <10 cfu/mL))
  Grade code, S. mutans, 13 Day: 0 (No growth detected or <1 colony (thus <10 cfu/mL))
  Grade code, S. mutans, 30 Days: 0 (No growth detected or <1 colony (thus <10 cfu/mL))

## O=C([O-])CN(CCN(CC(=O)O)CC(=O)O)CC(=O)[O-].[Na+].[Na+] [EDTA, ethylenediaminetetraacetic acid disodium salt]
[1]
  Grade code, Aeromonas sp, 3 Days: 5 (More than 10,000 colonies estimated (thus >100,000 cfu/mL))
  Grade code, Aeromonas sp, 14 Days: 4 (1001 to 10,000 colonies (thus 10,000 cfu/mL to 100,000 cfu/mL))
  Grade code, Aeromonas sp, 30 Days: 4 (1001 to 10,000 colonies (thus 10,000 cfu/mL to 100,000 cfu/mL))
[2]
  Grade code, B. subtilis, 3 Day: 4 (1001 to 10,000 colonies (thus 10,000 cfu/mL to 100,000 cfu/mL))
  Grade code, B. subtilis, 14 Day: 4 (1001 to 10,000 colonies (thus 10,000 cfu/mL to 100,000 cfu/mL))
  Grade code, B. subtilis, 30 Days: 4 (1001 to 10,000 colonies (thus 10,000 cfu/mL to 100,000 cfu/mL))
[3]
  Grade code, B. cepacia, 3 Days: 4 (1001 to 10,000 colonies (thus 10,000 cfu/mL to 100,000 cfu/mL))
  Grade code, B. cepacia, 14 Days: 4 (1001 to 10,000 colonies (thus 10,000 cfu/mL to 100,000 cfu/mL))
  Grade code, B. cepacia, 30 Days: 4 (1001 to 10,000 colonies (thus 10,000 cfu/mL to 100,000 cfu/mL))
[4]
  Grade code, E. coli, 3 Day: 5 (More than 10,000 colonies estimated (thus >100,000 cfu/mL))
  Grade code, E. coli, 14 Day: 5 (More than 10,000 colonies estimated (thus >100,000 cfu/mL))
  Grade code, E. coli, 30 Day: 5 (More than 10,000 colonies estimated (thus >100,000 cfu/mL))
[5]
  Grade code, P. vulgaris, 3 Days: 5 (More than 10,000 colonies estimated (thus >100,000 cfu/mL))
  Grade code, P. vulgaris, 13 Days: 4 (1001 to 10,000 colonies (thus 10,000 cfu/mL to 100,000 cfu/mL))
  Grade code, P. vulgaris, 30 Day: 4 (1001 to 10,000 colonies (thus 10,000 cfu/mL to 100,000 cfu/mL))
[6]
  Grade code, P. aeruginosa, 3 Days: 4 (1001 to 10,000 colonies (thus 10,000 cfu/mL to 100,000 cfu/mL))
  Grade code, P. aeruginosa, 13 Days: 4 (1001 to 10,000 colonies (thus 10,000 cfu/mL to 100,000 cfu/mL))
  Grade code, P. aeruginosa, 30 Days: 5 (More than 10,000 colonies estimated (thus >100,000 cfu/mL))
[7]
  Grade code, S. aureus, 3 Day: 5 (More than 10,000 colonies estimated (thus >100,000 cfu/mL))
  Grade code, S. aureus, 14 Day: 4 (1001 to 10,000 colonies (thus 10,000 cfu/mL to 100,000 cfu/mL))
  Grade code, S. aureus, 30 Day: 4 (1001 to 10,000 colonies (thus 10,000 cfu/mL to 100,000 cfu/mL))
[8]
  Grade code, S. epidermidis, 3 Days: 4 (1001 to 10,000 colonies (thus 10,000 cfu/mL to 100,000 cfu/mL))
  Grade code, S. epidermidis, 13 Days: 3 (101 to 1000 colonies (thus 1000 to 10,000 cfu/mL))
  Grade code, S. epidermidis, 30 Days: 4 (1001 to 10,000 colonies (thus 10,000 cfu/mL to 100,000 cfu/mL))
[9]
  Grade code, S. mutans, 3 Day: 4 (1001 to 10,000 colonies (thus 10,000 cfu/mL to 100,000 cfu/mL))
  Grade code, S. mutans, 13 Day: 4 (1001 to 10,000 colonies (thus 10,000 cfu/mL to 100,000 cfu/mL))
  Grade code, S. mutans, 30 Days: 4 (1001 to 10,000 colonies (thus 10,000 cfu/mL to 100,000 cfu/mL))
